Assay results published in ChEMBL document CHEMBL2440033, “Synthesis of amino-hydroxy-benzocycloheptenones as potent, selective, non-peptidic dinuclear zinc metalloaminopeptidase inhibitors” (Bioorg Med Chem, 2013).

Tests used:
[1] = target: Bacterial leucyl aminopeptidase (Vibrio proteolyticus, UniProt Q01693); assay: Inhibition of Aeromonas proteolytica leucyl aminopeptidase using L-leucine para-notroanilide as substrate assessed as release of para-nitroaniline by Dixon plot analysis
Aminopeptidase N = target: T1, Aminopeptidase N (Sus scrofa, UniProt P15145); assay: Inhibition of porcine kidney APN using L-leucine para-notroanilide as substrate assessed as release of para-nitroaniline by Dixon plot analysis
T1 sequence (P15145 whole entry): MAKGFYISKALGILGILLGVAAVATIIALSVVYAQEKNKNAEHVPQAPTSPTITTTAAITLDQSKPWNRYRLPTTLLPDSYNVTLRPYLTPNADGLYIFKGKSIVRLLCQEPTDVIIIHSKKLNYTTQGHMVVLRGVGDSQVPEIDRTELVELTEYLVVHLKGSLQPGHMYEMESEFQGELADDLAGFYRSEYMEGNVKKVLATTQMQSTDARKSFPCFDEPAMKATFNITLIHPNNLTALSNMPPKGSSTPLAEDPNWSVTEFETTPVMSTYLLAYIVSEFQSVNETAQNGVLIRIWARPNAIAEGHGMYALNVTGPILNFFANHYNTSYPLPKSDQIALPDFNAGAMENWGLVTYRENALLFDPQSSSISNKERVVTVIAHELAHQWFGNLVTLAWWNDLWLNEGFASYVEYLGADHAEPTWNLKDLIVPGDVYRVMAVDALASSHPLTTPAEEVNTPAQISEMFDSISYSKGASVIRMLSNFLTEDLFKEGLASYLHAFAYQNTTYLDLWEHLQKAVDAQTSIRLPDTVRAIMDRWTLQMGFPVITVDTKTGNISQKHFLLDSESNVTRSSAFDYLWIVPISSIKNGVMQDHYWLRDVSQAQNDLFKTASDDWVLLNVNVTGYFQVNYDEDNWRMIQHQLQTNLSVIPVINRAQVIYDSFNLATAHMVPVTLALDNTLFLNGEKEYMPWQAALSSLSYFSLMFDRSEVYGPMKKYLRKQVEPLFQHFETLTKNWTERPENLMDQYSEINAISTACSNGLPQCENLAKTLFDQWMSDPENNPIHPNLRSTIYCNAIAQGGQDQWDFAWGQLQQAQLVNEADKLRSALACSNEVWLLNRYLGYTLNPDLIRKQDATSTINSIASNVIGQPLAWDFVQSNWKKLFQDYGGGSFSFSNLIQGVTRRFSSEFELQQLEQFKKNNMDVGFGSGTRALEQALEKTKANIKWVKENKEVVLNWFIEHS

Chain of Bacterial leucyl aminopeptidase (Q01693 whole entry): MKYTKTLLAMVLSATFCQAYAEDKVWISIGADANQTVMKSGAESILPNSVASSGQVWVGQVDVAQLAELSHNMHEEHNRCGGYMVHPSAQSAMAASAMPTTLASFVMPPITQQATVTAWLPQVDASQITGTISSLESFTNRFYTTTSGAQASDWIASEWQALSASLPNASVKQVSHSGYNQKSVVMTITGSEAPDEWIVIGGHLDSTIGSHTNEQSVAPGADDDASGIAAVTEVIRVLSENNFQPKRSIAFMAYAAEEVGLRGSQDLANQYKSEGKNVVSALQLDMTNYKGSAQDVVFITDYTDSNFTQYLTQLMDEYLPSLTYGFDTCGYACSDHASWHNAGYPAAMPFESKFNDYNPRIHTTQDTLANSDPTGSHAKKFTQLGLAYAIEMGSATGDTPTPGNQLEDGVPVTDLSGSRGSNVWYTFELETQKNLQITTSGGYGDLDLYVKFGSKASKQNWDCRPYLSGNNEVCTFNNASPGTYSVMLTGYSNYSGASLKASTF

Compound | IC50 [1] [µM] | Ki [1] [µM] | IC50 (Aminopeptidase N) [µM] | Ki (Aminopeptidase N) [µM]
NC1CCc2ccccc2CC1=O (stereo unspecified) | 900 |  |  | 
N[C@@H]1[C@H](O)Cc2ccccc2C[C@@H]1O |  | 78 | > 1000 | 
N[C@H]1Cc2ccccc2C[C@@H](O)C1=O (racemic) |  | 4 | > 100 | 
N[C@H]1Cc2ccccc2C[C@H](O)C1=O (racemic) |  | 24 |  | 42

Further lines, results first:

IC50 [1] [µM] | Ki [1] [µM] | IC50 (Aminopeptidase N) [µM] | Ki (Aminopeptidase N) [µM] | Compound
> 1000 |  | > 1000 |  | N[C@@H]1C(=O)Cc2ccccc2C[C@@H]1O (racemic)
 | 0.01 | > 1000 |  | N[C@H]1Cc2ccccc2CC(=O)[C@H]1O (racemic)
